Laboratory results published in US20250040539A1, “COMPOSITION COMPRISING AN ANTIMICROBIAL AGENT AND A CARBOXAMIDE” (BASF SE, priority 2021, published 2025).

What was measured:
Assay type in all cases: cell-based
[1] = system: bacterial mix: Escherichia coli DSM 1576, Alcaligenes faecalis DSM 13644, Pseudomonas aeruginosa ATCC 15442, Staphylococcus aureus ATCC 6538, Burkholderia …; assay: Preservative activity in a manual dishwashing composition (MDW, pH 7.1) with 2.0% 2-phenoxyethanol against bacterial mix (Example 2.4); details: MDW + 2.0% PE, no amide (Comparative 2)
Experimental: (§1) A manual dish wash detergent (MDW) of pH 7.1 containing the following components was used:
The samples were contaminated with a bacterial mix consisting of: • Escherichia coli DSM 1576 • Alcaligenes faecalis DSM 13644 • Pseudomonas aeruginosa ATCC 15442 • Staphylococcus aureus ATCC 6538 • Burkholderia cepacia DSM 7288 • Pseudomonas putida DSM 12735
The samples were inoculated with the bacterial mix at day 0 and 7 to obtain 10E+06 to 10E+07 CFU/ml inoculation in the test sample and stored at 25° C. for 21 days. CFU was determined before re-inoculation at day 7 and on days 14 and 21.
Any CFU value at day 7 (d7), day 14 (d14) or day 21 (d21) obtained with a sample according to the invention containing 2-phenoxyethanol and amide (MDW+2.0% PE+x % Amide) lower than the respective value of the “comparative 2” example (MOW+2.0% by weight of 2-phenoxyethanol) indicates a better performance.

[2] = system: fungus Aspergillus brasiliensis DSM 1988; assay: Preservative activity in an enzyme (mannanase) solution of pH 6 with 2-phenoxyethanol (Example 1.4); details: for d0 [CFU/ml]: day 0 (inoculation); for d2 [CFU/ml]: day 2; for d7 [CFU/ml]: day 7; for d14 [CFU/ml]: day 14; for d15 [CFU/ml]: day 15 (after re-inoculation); for d22 [CFU/ml]: day 22; for d29 [CFU/ml]: day 29
Experimental: A enzyme solution of pH 6 containing the hydrolase mannanase of the following composition was used:
The samples were contaminated with the fungus Aspergillus brasiliensis DSM 1988.
The samples were inoculated with the fungus at day 0 and 15 to obtain 1-3×10E+05 CFU/ml inoculation in the test sample consisting of the above-defined enzyme solution and stored at 25° C. for 29 days. CFU was determined at days 0, 2, 7, 14, 15 (after re-inoculation), 22 and 29 (abbreviated d0, d2, d7, d14, d15, d22, d29).
Any CFU value at d2, d7, d14, d22 or d29 obtained with an enzyme solution sample of the invention containing 2-phenoxyethanol and amide (enzyme solution+0.7% PE+0.07% of amide) lower than the respective value of the comparative example (enzyme solution+0.7% by weight of 2-phenoxyethanol) indicates a better performance of the inventive combination of 2-phenoxyethanol with the amide.
The amide used was N,N-dimethyl-n-decanoyl amide (=n-decanoyl-N,N-dimethylamide).

[3] = system: fungal mix: Aspergillus brasiliensis DSM 1988, Rhodotorula mucilaginosa DSM 13621, Yarrowia lipolytica DSM 8218; assay: Preservative activity in a diluted non-ionic surfactant solution (1% Lutensol ON 70, pH 7.0) with 2-phenoxyethanol against fungal mix (Example 1.6); details: Surfactant solution + 0.81% PE, no amide (Comparative 2)
Source text: A surfactant solution in phosphate buffer of pH 7.0 containing 1% by weight of Lutensol ON 70, a C10-fatty alcohol ethoxylated with 7EO, was used.
(§2) The samples were contaminated with a fungal mix consisting of: • Aspergillus brasiliensis DSM 1988 • Rhodotorula mucilaginosa DSM 13621 • Yarrowia lipolytica DSM 8218
The samples were inoculated with the fungal mix at day 0 and 7 to obtain 1-3×10E+05 CFU/ml inoculation in the test sample consisting of the above-defined surfactant solution and stored at 25° C. for 14 days. CFU was determined before re-inoculation at day 7, and on day 14.
Any CFU value at d7 and d14 obtained with a surfactant solution sample of the invention containing 2-phenoxyethanol and amide (surfactant solution+0.81% PE+0.09% of amide) lower than the respective value of the “comparative 2” example (surfactant solution+0.81% by weight of 2-phenoxyethanol) indicates a better performance of the inventive combination of 2-phenoxyethanol with the amide.

[4] = system: fungal mix: Aspergillus brasiliensis DSM 1988, Rhodotorula mucilaginosa DSM 13621, Yarrowia lipolytica DSM 8218; assay: Preservative activity in a manual dishwashing composition (MDW, pH 7.1) with 2.0% 2-phenoxyethanol against fungal mix (Example 1.3); details: for d7 [CFU/ml]: day 7; for d14 [CFU/ml]: day 14; for d21 [CFU/ml]: day 21
Experimental: as §1, §2
The samples were inoculated with the fungal mix at day 0 and 7 to obtain 1-3×10E+05 CFU/ml inoculation in the test sample consisting of the above-defined dish wash detergent MDW and stored at 25° C. for 21 days. CFU was determined before re-inoculation at day 7, and on days 14 and 21.
Any CFU value at d7, d14 or d21 obtained with a MDW sample of the invention containing 2-phenoxyethanol and amide (MDW+2.0% PE+1% of Amide) lower than the respective value of the “comparative 2” example (MDW+2.0% by weight of 2-phenoxyethanol) indicates a better performance of the inventive combination of 2-phenoxyethanol with the amide.

[5] = system: fungal mix (including yeasts and molds): Aspergillus brasiliensis DSM 1988, Rhodotorula mucilaginosa DSM 13621, Yarrowia lipolytica DSM 8218; assay: Preservative activity of a basic composition (10% PG in water, pH 7) with 2-phenoxyethanol against fungal contamination (Example 1.1); details: 25° C.; for d21 [CFU/ml]: day 21
Experimental: An aqueous composition of pH 7 comprising 10% by weight of propyleneglycol (PG) as organic solvent, 0.36% by weight of 2-phenoxyethanol (PE) as antimicrobial and 0.04% by weight of the amide listed in the below table was tested for its preserving activity against fungal contamination (the percentages are weight percent and relate to the total weight of the composition). For this purpose, the samples were contaminated with a fungal mix (including yeasts and molds) consisting of: • Aspergillus brasiliensis DS M 1988 • Rhodotorula mucilaginosa DSM 13621 • Yarrowia lipolytica DS M 8218
To control the efficacy, following control compositions were tested: • “Reference”, consisting of only 10% by weight of propylene glycol in water • “Comparative 1” containing 10% by weight of propylene glycol and amide in the given concentration, but no 2-phenoxyethanol • […] in the given concentration, but no amide.
The samples were inoculated with the fungal mix at day 0, 7 and 14 to obtain a cell density in the range of 1-3×10E+05 CFU/ml (CFU=colony forming units) in the test samples (compositions listed in the below table) and stored at 25° C. for 21 days.
CFU was determined before re-inoculation at days 7 and 14, and on day 21.

[6] = Enzyme solution + 0.7% PE, no amide (Comparative)
[7] = MDW + 2.0% PE, no amide (Comparative 2)
[8] = Enzyme solution + 0.7% PE + 0.07% amide
[9] = MDW + 1.0% amide, no PE (Comparative 1)

Question: For `OCCOc1ccccc1` [PE, 2-phenoxyethanol, reference compound], which “d7 [CFU/ml]” value ([1]; day 7) is on record?
Answer: Its value is 330 CFU/ml.

Question: And the “d14 [CFU/ml]” value ([1]; day 14)?
Answer: The value was 2,800 CFU/ml.

Question: And the “d21 [CFU/ml]” value ([1]; day 21)?
Answer: The value was 38,500 CFU/ml.

Question: And the “d0 [CFU/ml]” value [2, 6]?
Answer: The value was 110,000 CFU/ml.

Question: What about the “d2 [CFU/ml]” value [2, 6] of the same compound?
Answer: Its value is 92,000 CFU/ml.

Question: And the “d7 [CFU/ml]” value [2, 6]?
Answer: The value was 29,000 CFU/ml.

Question: And the “d14 [CFU/ml]” value [2, 6]?
Answer: Its value is 21,000 CFU/ml.

Question: And the “d15 [CFU/ml]” value [2, 6]?
Answer: Its value is 300,000 CFU/ml.

Question: What about the “d22 [CFU/ml]” value [2, 6] of the same compound?
Answer: The value was 67,000 CFU/ml.

Question: And the “d29 [CFU/ml]” value [2, 6]?
Answer: The value was 100,000 CFU/ml.

Question: And the “d7 [CFU/ml]” value ([3]; day 7)?
Answer: Its value is 16,500 CFU/ml.

Question: What about the “d14 [CFU/ml]” value ([3]; day 14) of the same compound?
Answer: The value was 45,00 CFU/ml.

Question: What about the “d7 [CFU/ml]” value [4, 7] of the same compound?
Answer: Its value is 27,500 CFU/ml.

Question: And the “d14 [CFU/ml]” value [4, 7]?
Answer: Its value is 22,000 CFU/ml.

Question: And the “d21 [CFU/ml]” value [4, 7]?
Answer: The value was 18,000 CFU/ml.

Question: And the “d7 [CFU/ml]” value ([5]; 10% PG + 0.4% PE, no amide (Comparative 2), fungal mix inoculated at day 0, 7 and 14, day 7)?
Answer: The value was 10,000 CFU/ml.

Question: What about the “d14 [CFU/ml]” value ([5]; 10% PG + 0.4% PE, no amide (Comparative 2), fungal mix inoculated at day 0, 7 and 14, day 14) of the same compound?
Answer: The value was 16,000 CFU/ml.

Question: What about the “d21 [CFU/ml]” value ([5]; 10% PG + 0.4% PE, no amide (Comparative 2), fungal mix inoculated at day 0, 7 and 14) of the same compound?
Answer: The value was 38,500 CFU/ml.

Question: How did the “d0 [CFU/ml]” value ([2]; Enzyme solution + 0.7% PE + 0.07% amide (N,N-dimethyl-n-decanoyl amide)) turn out when `CCCCCCCCCC(=O)N(C)C` [n-Decanoyl-N,N-dimethylamide] was run?
Answer: The value was 110,000 CFU/ml.

Question: And the “d2 [CFU/ml]” value [2, 8]?
Answer: Its value is 80,000 CFU/ml.

Question: What about the “d7 [CFU/ml]” value [2, 8] of the same compound?
Answer: Its value is 240 CFU/ml.

Question: What about the “d14 [CFU/ml]” value [2, 8] of the same compound?
Answer: The value was 30 CFU/ml.

Question: What about the “d15 [CFU/ml]” value [2, 8] of the same compound?
Answer: The value was 300,000 CFU/ml.

Question: And the “d22 [CFU/ml]” value [2, 8]?
Answer: The value was 14,000 CFU/ml.

Question: And the “d29 [CFU/ml]” value [2, 8]?
Answer: The value was 70 CFU/ml.

Question: And the “d7 [CFU/ml]” value [4, 9]?
Answer: The value was 50,500 CFU/ml.

Question: And the “d14 [CFU/ml]” value [4, 9]?
Answer: The value was 97,500 CFU/ml.

Question: And the “d21 [CFU/ml]” value [4, 9]?
Answer: The value was 83,000 CFU/ml.

Question: What about the “d7 [CFU/ml]” value ([4]; MDW + 2.0% PE + 1.0% amide) of the same compound?
Answer: The value was 19,000 CFU/ml.

Question: And the “d14 [CFU/ml]” value ([4]; MDW + 2.0% PE + 1.0% amide)?
Answer: The value was 10,000 CFU/ml.

Question: What about the “d21 [CFU/ml]” value ([4]; MDW + 2.0% PE + 1.0% amide) of the same compound?
Answer: Its value is 5,000 CFU/ml.

Question: And the “d7 [CFU/ml]” value ([5]; 10% PG + 0.36% PE + 0.04% Amide in water, pH 7, fungal mix inoculated at day 0, 7 and 14 (1-3x10E+05 CFU/ml), day 7 before re-inoculation)?
Answer: The value was <10 CFU/ml.

Question: What about the “d14 [CFU/ml]” value ([5]; 10% PG + 0.36% PE + 0.04% Amide in water, pH 7, fungal mix inoculated at day 0, 7 and 14, day 14 before re-inoculation) of the same compound?
Answer: The value was <10 CFU/ml.

Question: What about the “d21 [CFU/ml]” value ([5]; 10% PG + 0.36% PE + 0.04% Amide in water, pH 7, fungal mix inoculated at day 0, 7 and 14) of the same compound?
Answer: Its value is <10 CFU/ml.
